Data from patent US20240057599A1, “METHODS FOR IMPROVING FRUIT QUALITY” (The State of Israel, Ministry of Agriculture & Rural …, priority 2021, published 2024).

Assays:
Type in all cases: in vivo
[1] = system: White (Sifra) potato tubers; experiment: Lignin production at the cut (Calcofluor white fluorescence); details: 8 mM dip, one-week post-treatment, vs control
Procedure: White (Sifra) potato tubers were dipped in water or 8 mM Phe for 1 min, and dried. The tubers were stored at 20° C. for 2 days. Each tuber was cut (2 cm length, 2 cm deep, 2 mm wide). One week later the curing of the cut was documented.

grapes (Skarlota) = experiment: Preharvest spray, red coloration in grapes
Text: FIG. 28 includes a vertical bar graph showing the effect of preharvest spray treatment on red coloration (represented as index 0-5) in grapes (Skarlota). […] Further, improvement of fruit coloration was also shown in grapes (FIG. 28).

[2] = system: Mango fruits (Tali and Shelly); experiment: ROS accumulation in injured mango fruits; details: postharvest 8 mM; injured fruit; vs non-treated injured fruit
Procedure: FIGS. 31A-31C include a fluorescent micrograph (31A) and vertical bar graphs showing that postharvest treatment of Mango fruits (Tali and Shelly) with 8 mM phenylalanine reduces accumulation of reactive oxygen species (ROS) in the peel (31B) and pulp (31C) of treated injured fruits compared to control injured fruit (non-treated). […] (31A) Visualization conducted 20 minutes post induced injury. (31B-31C) ROS quantification 7 days post induced injury.
Further, the inventors have shown that postharvest treatment as disclosed herein reduces ROS (reactive oxygen species) accumulation in fruit injured postharvest (FIG. 31).

mango fruits [3] = experiment: Red coloration of mango fruits after preharvest treatment; details: Shelly and Kent; 8 mM, 1 or 2 weeks preharvest
Procedure: (§1) Mango or apple trees were treated 1 week or 2 weeks pre-harvest with either 8 mM of phenylalanine or with 0.2% prohydrojasmon ('blush'). Fruits were harvested from the external area of the tree, wherein fruits are exposed to the sunlight (photon flux of 1,500±200 μmol·m^-2 sec^-1). After harvest: (a) mango fruits were stored for 3 weeks at 12° C., and for another week at 22° C. (e.g., shelf life); and (b) apple fruits were stored for 3 months at 0° C., and for another week at 22° C. (e.g., shelf life). Surface area of the red color was evaluated as percentage, and red intensity was evaluated on a scale of 0-5. Each mango fruit was assessed for percentage of red surface area on fruit for each treatment at different time points (harvest, after cold storage at 12° C. and after shelf life at 22° C.). Similarly, red intensity was evaluated for each mango fruit using a visual rating scale, where 0=no red color, 1=faint red color, and 5=very intense red color. Fifty fruit were evaluated per treatment. The skin color (hue) of 15 mango fruit was measured for each treatment using a CR-400/410 Chromometer (Konicka Minolta, Osaka, Japan) on the equatorial line of each fruit at the […] point. […] Chlorophyll, anthocyanin, and flavonoid content were measured by the Multiplex III fluorescence detector (Force A, Orsay, France), which consists of 12 fluorescence signals. […]

mango fruits [4] = experiment: Sensory analysis by a panel of 20 tasters, mango fruits and juice; details: for quality of juice extracted from mango fruits: preharvest application, 2020
Procedure: (§2) Mango—unripe Mango fruits were harvested and dipped in 4-8 mM phenylalanine for a period of 30 seconds. Fruits were stored at 22° C. until ripening (Days 11-15), wherein sensory analysis by a panel of 20 tasters was performed. Further, Brix, and % acidity (calibrated according to citric acid), and firmness (by Newton units) values were determined in 5 different fruits.

Mango (Tali) fruits = experiment: Aroma-associated VOC levels in dipped mango fruits; details: pulp; dipped in 8 mM; 11 days at 22° C.; vs non-treated
Procedure: FIGS. 30A-30G include vertical bar graphs showing that a […] treatment of mango fruits with 8 mM phenylalanine increases the levels of aroma-associated VOCs. Mango (Tali) fruits were dipped in 8 mM phenylalanine and after 11 days of storage at 22° C. the profile of volatiles in the fruit […] was examined. Concentration of the following volatile aroma substances was examined (presented as μg/gFW): (30A) α-Pinene; (30B) 3-Carene; (30C) D-Limonene; (30D) Gurjunene; (30E) α-Terpinolene; (30F) α-Phellandrene; and (30G) Caryophyllene. Further, the inventors have shown that postharvest treatment as disclosed herein improves fruit aroma. The investors have dipped Mango fruits, and 11 days after storage at 22° C., the levels of aroma-associated VOCs were determined. Indeed, postharvest treatment with an effective amount of phenylalanine induced a significant increase in the levels of all tested VOCs (FIG. 30).

Starking and Anna apples = experiment: Enzymatic browning of sliced apple fruits after preharvest treatment; details: 0.12%
Text: FIGS. 29A-29E include micrographs showing the effect of preharvest treatment on decay parameters in Starking (29A-29B) and Anna (29C-29E) apples. In control fruits, enzymatic browning (i.e., oxidation) was highly evident (29A, and 29C).
Further, the inventors have examined the effect of preharvest treatment with phenylalanine on enzymatic browning, i.e., oxidation, in a fruit.

[5] = system: Red (Memphis) and white (Sifra) potato tubers; experiment: Cut curing in potato tuber; details: 8 mM dip; for weight loss after cutting: statistically significant 14 days post-treatment
Procedure: Red (Memphis) and white (Sifra) potato tubers were dipped in water or 8 mM Phe for 1 min, and dried. The tubers were stored at 20° C. for 2 days. Each tuber was cut (2 cm length, 2 cm deep, 2 mm wide) in 3 spots. One week and 2 weeks later the curing of the cut was evaluated on a scale of 0-3, and the weight loss was measured.
Red (Memphis) and white (Sifra) potato tubers were dipped in water or 8 mM Phe for 1 min, and dried. The tubers were stored at 20° C. for 2 days. Each tuber was cut (2 cm length, 2 cm deep, 2 mm wide). Two weeks later the superficial and internal curing were documented.

[6] = system: Red (Memphis) and white (Sifra) potato tubers; experiment: Scratch curing in potato tuber; details: for scratch curing (scale of 0-3): 8 mM dip 1 min
Procedure: Red (Memphis) and white (Sifra) potato tubers were dipped in water or 8 mM Phe for 1 min, and dried. The tubers were stored at 20° C. for 2 days. Each tuber was scratched (2 cm length, and 1 cm wide) in 3 spots. One week and 2 weeks later the curing of the scratch was evaluated on a scale of 0-3, the recovery of the red color was evaluated on a scale of 0-3, and the weight loss was measured.

mango fruits [7] = experiment: Brix values of mango fruits and juice
Procedure: as §2

apple fruits (Jonathan) [8] = experiment: Red coloration of apple fruits after preharvest treatment; details: 8 mM, 1 or 2 weeks preharvest
Procedure: as §1

Mango (Shelly) fruits = experiment: Preharvest spray, red coloration and TSS in mango
Text: FIGS. 26A-26C include vertical bar graphs showing the effect of preharvest spray treatment on red coloration and TSS in Mango (Shelly) fruits. Red color surface (%; 26A), red color intensity (26B) and TSS (% Brix; 26C) were examined under preharvest treatments with 0.01%, 0.06%, […], or 0.24% phenylalanine (Phe).
(§3) Further, improvement of fruit coloration was also shown in grapes (FIG. 28).

[9] = system: Apple (Starking Delicious) fruits; experiment: Preharvest spray, red coloration and TSS in apple
Procedure: FIGS. 27A-27D include vertical bar graphs showing the effect of preharvest spray treatment on red coloration and TSS in Apple (Starking Delicious) fruits. […] In 27D, TSS was evaluated at time 0 (TO), after cold storage (CS), and after time at shelf conditions (e.g., shelf-life (SL)).
as §3

[10] = system: Muscat grapes and Petit Verdot grapes; experiment: Sensory analysis and Brix of grapes and juice after preharvest treatment; details: for Brix values of grapes and/or juice: 8 mM preharvest, vs control
Procedure: Grapes—Muscat grapes and Petit Verdot grapes were treated with 8 mM phenylalanine for: (i) 1 week or 2 weeks; and (ii) 1 week, 2 weeks, or 3 weeks, before harvest, and their combination, respectively. Sensory analysis by a panel of 20 tasters was performed, for the juice extracted from the fruits, and Brix, and % acidity (calibrated according to citric acid) values were also determined. In the case of muscat grapes, intact fruits were also analyzed (e.g., by the panel, Brix, and % acidity).

apple fruits (Jonathan) [11] = experiment: Sensory analysis and Brix of apple fruits and juice after preharvest treatment
Procedure: Apple—Apple trees were treated with: 8 mM phenylalanine 1 week or 2 weeks before harvest; or with 0.2 prohydrojasmon (also known as ‘blush’). Fruits were harvested from the external area of the tree. After harvest, fruits were stored for 3 months at 0° C., wherein sensory analysis by a panel of 20 tasters was performed, for both slices fruit and for juice extracted therefrom. Brix values were also determined.

[12] = 0.12% (~6 mM) preharvest spray, compared to 0.01%
[13] = preharvest, 0.06% by weight (~3 mM) or more
[14] = white Muscat grapes, preharvest application, 2020

For `N[C@@H](Cc1ccccc1)C(=O)O` [phenylalanine], the “lignin production (fluorescent intensity)” value [1] was “increased lignin production”, the red coloration (grapes (Skarlota); 0.01% (~0.5 mM) preharvest) was “ineffective” and the “red color index (0-5)” value (grapes (Skarlota); [12]) was “substantially more effective”. For the same compound, the “ROS accumulation in the peel” value [2] was “substantially less ROS”, the “ROS accumulation in the pulp” value [2] was “substantially less ROS” and the “formation of red coloration in mango fruits” value (mango fruits [3]) was “effectively induce the formation of red coloration”. The “quality of juice extracted from mango fruits” value (mango fruits [4]; Kent) was “quality improvement”, the “quality of juice extracted from mango fruits” value (mango fruits [4]; Shelly) was “quality improvement” and the “sensory quality of mango fruits (sweeter, less acidic, better aroma, firmness, general appreciation)” value (mango fruits [4]; tasters' panel, postharvest dip 4-8 mM (FIGS. 1-3) or preharvest application (FIGS. 7, 12), vs control) was “better quality”. The “level of 3-Carene” value (Mango (Tali) fruits) was “significantly elevated”, the “level of Caryophyllene” value (Mango (Tali) fruits) was “significantly elevated” and the “level of D-Limonene” value (Mango (Tali) fruits) was “significantly elevated”. The “level of Gurjunene” value (Mango (Tali) fruits) was “significantly elevated”, the “level of α-Phellandrene” value (Mango (Tali) fruits) was “significantly elevated” and the “level of α-Pinene” value (Mango (Tali) fruits) was “significantly elevated”. For the same compound, the “level of α-Terpinolene” value (Mango (Tali) fruits) was “significantly elevated”, the “enzymatic browning (oxidation)” value (Starking and Anna apples; Anna apples, 2 weeks or 4 weeks preharvest) was “effective in reducing enzymatic browning” and the “enzymatic browning (oxidation)” value (Starking and Anna apples; Starking apples, 2 weeks preharvest) was “effective in reducing enzymatic browning”. The “cut curing (scale of 0-3)” value ([5]; Memphis, 14 days) was “to a less extent”, the “weight loss after cutting” value ([5]; Memphis) was “reduced” and the “internal curing of the cut” value ([5]; Memphis, two weeks later) was “improved compared to control”. For the same compound, the “cut curing (scale of 0-3)” value ([5]; Sifra, 7 and 14 days post-treatment, vs control) was “improved significantly”, the “weight loss after cutting” value ([5]; Sifra) was “reduced” and the “superficial and internal curing of the cut” value ([5]; Sifra, two weeks later) was “improved compared to control”. For the same compound, the “weight loss after scratching” value ([6]; Memphis (red), 8 mM dip) was “reduced”, the “scratch curing (scale of 0-3)” value ([6]; Memphis (red), 7 and 14 days post-treatment) was “significantly improved” and the “color curing, recovery of the red color (scale of 0-3)” value ([6]; Memphis (red), 8 mM dip, 7 and 14 days post-treatment) was “significantly improved”. The “scratch curing (scale of 0-3)” value ([6]; Sifra (white), 7 and 14 days post-treatment) was “significantly improved”, the “weight loss after scratching” value ([6]; Sifra (white), 8 mM dip, statistically significant) was “reduced” and the “Brix values in juice extracted from mango fruits” value (mango fruits [7]; juice of treated mango fruits vs control (FIGS. 8, 13)) was “greater than the control”. For the same compound, the “Brix values in mango fruits” value (mango fruits [7]; treated mango fruits vs control (FIGS. 1-3, 7, 12)) was “greater than the control”, the “formation of red coloration in apple fruits” value (apple fruits (Jonathan) [8]) was “effectively induce the formation of red coloration” and the “red coloration (red color surface %, red color intensity)” value (Mango (Shelly) fruits; 0.01% (~0.5 mM) preharvest spray) was “ineffective”. The “TSS (% Brix)” value (Mango (Shelly) fruits; 0.01% preharvest spray) was “no contribution”, the TSS (Mango (Shelly) fruits; [13]) was “substantially improved” and the fruit coloration (Mango (Shelly) fruits; [13]) was “substantially improved”. For the same compound, the “TSS (% Brix)” value ([9]; 0.01% preharvest spray) was “comparable to negative control”, the “red coloration (red color surface %, red color intensity)” value ([9]; 0.01% preharvest spray) was “comparable to negative control” and the “TSS (% Brix)” value [9, 12] was “substantially more effective”. For the same compound, the “red coloration (red color surface %, red color intensity)” value [9, 12] was “substantially more effective”, the “Brix values of grapes and/or juice” value ([10]; Muscat grapes) was “increased Brix values” and the “Brix values of grapes and/or juice” value ([10]; Petit Verdot grapes) was “increased Brix values”. For the same compound, the “quality of juice extracted from grapes” value ([10]; Petit Verdot grapes, preharvest application, 2020) was “quality improvement”, the flavor of grapes [10, 14] was “flavor improvement” and the “quality of juice extracted from grapes” value [10, 14] was “quality improvement”. The “Brix values in apple fruits” value (apple fruits (Jonathan) [11]; 8 mM preharvest, vs control) was “greater than the control”, the “sensory quality of apple fruits and/or juice (sweeter, less acidic, better aroma)” value (apple fruits (Jonathan) [11]; tasters' panel, 8 mM 1 or 2 weeks preharvest, after 3 months at 0° C.) was “better quality” and the “texture of apple fruits” value (apple fruits (Jonathan) [11]; tasters' panel, 8 mM preharvest) was “better texture”.
